Consider 1 molecule from US20230372355A1 (AXSOME THERAPEUTICS, INC., priority 2022, published 2023).

Structures are written as SMILES.

Data set [1] deals with patients with moderate and severe migraine. To be noted: human, in vivo.
Data set [2] deals with patients with moderate and severe migraine and a history of inadequate response to prior acute treatments. Description: Phase 3 randomized, double-blind, placebo- and active-controlled trial, acute treatment of moderate and severe migraine (Example 1), efficacy. Format: in vivo, human.
Excerpt: Exclusion criteria included cluster headaches or other types of migraines, chronic daily headache 15 non-migraine headache days per month), history of significant cardiovascular disease, and uncontrolled hypertension.

For `CN(C)CCc1c[nH]c2ccc(Cn3cncn3)cc12` [rizatriptan, Rizatriptan], in data set [1], the “Any Treatment-Emergent Adverse Event, % of subjects” value is 15.4%; the “Any Treatment-Emergent Adverse Event, number of subjects” value is reported as 67; the “Dizziness, % of subjects” value was found to be 2.1%; the “Dizziness, number of subjects” value worked out at 9. For the same molecule, in data set [1], the “Nausea, % of subjects” value came to 4.8%; the “Nausea, number of subjects” value was 21; the “Somnolence, % of subjects” value is 2.1%; the “Somnolence, number of subjects” value worked out at 9. In addition, the “percentage of patients experiencing sustained pain relief from 2 hours to 24 hours after dosing” value in data set [2] (2-24 hours) is 43.9%. Moreover, the “proportion of patients with sustained pain freedom from 2 hours to 48 hours” value in data set [2] (2-48 hours) came out at 8.8%. Besides, the “proportion of patients experiencing pain relief […] after dosing” value in data set [2] ([…] after dosing) is on record as 52.5%.
